Assay results taken from US6632421B2, “Deodorant composition comprising a water-soluble zinc salt as odor-absorbing agent” (L'Oreal, priority 1996, dated 2003).

Assay: odour absorption test with respect to natural sweat (sniff test on flasks)
Set-up: species or system human
Protocol: An odour absorption test was carried out with respect to natural sweat.
The axillary sweat from a number of people was thus removed in a sauna and combined to produce a sweat sample. In order to obtain the characteristic nauseating smell of sweat, before introducing the active substance, this sweat sample was incubated for 14 hours at a temperature of 37° C. 1 ml of the incubated sweat sample was introduced into each flask of active substance to be tested and into a control flask (without active substance). The active substance: 5.5 mg of Zn ion in the form of zinc pidolate, zinc chloride, zinc gluconate, zinc lactate, zinc phenolsulphonate and zinc sulphate, was then introduced respectively into each of the flasks of active substance to be tested.
The flasks were then incubated for a second time for 24 hours at a temperature of 37° C. and then for a third time for 3 days at room temperature.
Eight judges then smelled (“sniff test”) each of these flasks and graded the intensity of the smell on a scale from 0 to 4.

Compound	intensity of the smell, grade on a scale from 0 to 4 (0=no smell, 4=strong smell) (5.5 mg of Zn ion in 1 ml incubated sweat, 24 hours at 37° C. then 3 days at room temperature, eight judges, control flask graded 4)	absorption effect on the smell of sweat (sample containing a bactericide, check that the test is truly an odour absorption test)
zinc pyrrolidonecarboxylate [zinc pidolate]	best results	
Oc1cc(Cl)ccc1Oc1ccc(Cl)cc1Cl [triclosan, 5-chloro-2-(2,4-dichlorophenoxy)phenol]		no absorption effect
